# Measurements reported in US6620985B1, “PAD4 nucleic acid compositions from Arabidopsis and methods therefor” (University of Maryland Biotechnology Institute, priority 1998, dated 2003).
# Experiments:
# [1] = test system: PR-1; experiment: PR-1 expression (RNA blot) after SA treatment; type: in vivo, Arabidopsis thaliana
# Source text: Plants and Growth Conditions. Wild-type plants (Arabidopsis thaliana ecotype Columbia (Col)) and pad4 plants from a line that had been backcrossed four times to the wild-type parent (Col) (Glazebrook et al., 1996, Genetics 143, 973-982) were used in this study. Arabidopsis ecotype Keswick (Ksk) was provided by Eric Holub (Horticulture Research International, Warwick, UK). Arabidopsis ecotype Landsberg erecta (Ler) plants carrying the nahG transgene were provided by Xinnian Dong (Bowling et al., 1994, Plant Cell 6, 1845-1857). nahG mutant plants used in this example, and all other examples, were of the Ler ecotype. Plants were grown in pots in Metro-Mix 200 soil (Scotts-Sierra Horticultural Products Company, Marysville, Ohio) in a growth chamber (22±2° C., 85% relative humidity, 100 μE s^−1 m^−2 fluorescent illumination) on a 12-hr light/dark cycle. Fully-expanded leaves of four-week old plants were used.
# Inoculations with Bacteria and Treatment with Chemicals. Pseudomonas syringae pv maculicola (Psm) ES4326 (Dong et al., 1991, Plant Cell 3, 61-72; Crute et al., 1994, in Arabidopsis, eds. Meyerowitz & Somerville, Cold Spring Harbor Press, NY, pp. 705-747), Pseudomonas. syringae pv tomato (Pst) DC3000 (Cuppels, 1986, Appl. Environ. Microbiol. 52, 323-327) and Xanthomonas campestris pv campestris (Xcc) BP109 (Weiss et al., 1994, J. Bacteriol. 176, 3354-3359) have been described. […]
# [2] = test system: Psm ES4326; experiment: Psm ES4326 growth in plants sprayed with SA; type: in vivo, Pseudomonas syringae pv maculicola; conditions: 5 mM SA sprayed one day before infection; titer three days after infection; wild-type and pad4-1
# Source text: (§1) Inoculations with Bacteria and Treatment with Chemicals. Pseudomonas syringae pv maculicola (Psm) ES4326 (Dong et al., 1991, Plant Cell 3, 61-72; Crute et al., 1994, in Arabidopsis, eds. Meyerowitz & Somerville, Cold Spring Harbor Press, NY, pp. 705-747), Pseudomonas. syringae pv tomato (Pst) DC3000 (Cuppels, 1986, Appl. Environ. Microbiol. 52, 323-327) and Xanthomonas campestris pv campestris (Xcc) BP109 (Weiss et al., 1994, J. Bacteriol. 176, 3354-3359) have been described. The avirulence gene avrRpt2 was carried on plasmid pLH12 as described (Dong et al., 1991, Plant Cell 3, 61-72; Whalen et al., 1991, Plant Cell 3, 49-59). P. syringae strains were grown in King's B medium supplemented with appropriate antibiotics (Glazebrook and Ausubel, 1994, Proc. Natl. Acad. Sci. USA 91, 8955-8959), and Xcc BP1 09 was grown in Luria-Bertani medium supplemented with 50 μg/mL rifampicin. Bacteria were infiltrated into Arabidopsis plants as described (Glazebrook and Ausubel, 1994, PNAS USA 91, 8955-8959; Glazebrook et al., 1996, Genetics 146: 381-392). For camalexin assays, the bacterial dose for P. syringae strains was 3×10^4 colony-forming units (cfu)/cm^2 leaf area (equivalent to OD600=0.006); for Xcc BP109 it was 5×10^5 cfu/cm^2 (OD600=0.1). […]
# [3] = test system: PAD4 mRNA; experiment: PAD4 RNA blot analysis after SA treatment; type: in vivo, Arabidopsis thaliana; conditions: 5 mM SA
# Source text: Inoculations with Bacteria and Treatment with Chemicals. Pseudomonas syringae pv maculicola (Psm) ES4326 (Dong et al., 1991, Plant Cell 3, 61-72; Crute et al., 1994, in Arabidopsis, eds. Meyerowitz & Somerville, Cold Spring Harbor Press, NY, pp. 705-747), Pseudomonas. syringae pv tomato (Pst) DC3000 (Cuppels, 1986, Appl. Environ. Microbiol. 52, 323-327) and Xanthomonas campestris pv campestris (Xcc) BP109 (Weiss et al., 1994, J. Bacteriol. 176, 3354-3359) have been described. The avirulence gene avrRpt2 was carried on plasmid pLH12 as described (Dong et al., 1991, Plant Cell 3, 61-72; Whalen et al., 1991, Plant Cell 3, 49-59). P. syringae strains were grown in King's B medium supplemented with appropriate antibiotics (Glazebrook and Ausubel, 1994, Proc. Natl. Acad. Sci. USA 91, 8955-8959), and Xcc BP1 09 was grown in Luria-Bertani medium supplemented with 50 μg/mL rifampicin. Bacteria were infiltrated into Arabidopsis plants as described (Glazebrook and Ausubel, 1994, PNAS USA 91, 8955-8959; Glazebrook et al., 1996, Genetics 146: 381-392). For camalexin assays, the bacterial dose for P. syringae strains was 3×10^4 colony-forming units (cfu)/cm^2 leaf area (equivalent to OD600=0.006); for Xcc BP109 it was 5×10^5 cfu/cm^2 (OD600=0.1). For experiments involving extraction of total RNA from infected leaves, Psm ES4326 and Psm ES4326 carrying avrRpt2 were introduced at a dose of 10^4 cfu/cm^2 leaf area (equivalent to OD600=0.002). For determination of Psm ES4326 growth, plants were infected with Psm ES4326 at a dose of 10^3 cfu/cm^2 leaf area (equivalent to OD600=0.0002). After […] were excised and bacterial growth was assayed as described (Glazebrook et al., 1996, Genetics 143, 973-982). Data are reported as means and standard deviations of the log(cfu/cm^2) of six replicates. For chemical treatment, plants were sprayed with 5 mM SA or 5 mM silver nitrate with 0.02% Silwet L-77 (Lehle Seeds, Tucson, Ariz.) to reduce surface tension. Control plants were sprayed with water containing 0.02% Silwet L-77.
# PAD4 RNA Blot Analysis. […]
# [4] = test system: camalexin synthesis; experiment: Camalexin assay in Psm ES4326-infected leaves; type: in vivo, Arabidopsis thaliana; conditions: SA sprayed one day before Psm ES4326 infection, assayed two days after infection
# Source text: as §1
# Phytoalexin Quantitation. […]
smiles,measurement,setting,value
"O=C(O)c1ccccc1O [SA, salicylic acid]",PR-1 mRNA level in pad4-1 plants,"[1]; 5 mM SA one day before Psm ES4326 infection, two days after infection",comparable to that in wild-type plants
same,PR-1 expression in response to SA,"[1]; plants sprayed with 5 mM SA, wild-type and pad4-1, monitored for several days",induced similar levels of PR-1 expression in wild-type and pad4-1 plants
same,resistance to Psm ES4326 (bacterial titer),[2],induced comparable levels of resistance to Psm ES4326 in wild-type and pad4-1 plants
same,PAD4 transcript levels in npr1-1 plants,[3]; six and twelve hours after treatment,undetectable
same,PAD4 transcript levels in wild-type plants,"[3]; wild-type (Col), six and twelve hours after treatment",markedly detectable
same,PAD4 mRNA levels,"[3]; wild-type (Col, Ler), pad4-1, pad4-3, pad4-4 plants",increased rapidly after SA treatment
same,camalexin levels in wild-type plants,[4],little effect on camalexin levels
same,camalexin levels in pad4-1 plants,[4]; vs not pretreated,much higher camalexin levels
